{
  "source": "PubChem BioAssay AID1259407",
  "about": "(Chemical Carcinogenesis Research Information System (CCRIS), 2018)",
  "tested_on": "CCRIS mutagenicity, Ames/micronucleus/aberration tests",
  "experiment": "CCRIS mutagenicity studies",
  "key": {"[1]": {"conditions": "Test System: AMES SALMONELLA TYPHIMURIUM, Strain/Indicator: TA98, Metabolic Activation: NONE, Method: STANDARD PLATE"}, "[2]": {"conditions": "Test System: AMES SALMONELLA TYPHIMURIUM, Strain/Indicator: TA98, Metabolic Activation: RAT, LIVER, S-9, AROCLOR 1254, Method: STANDARD PLATE"}, "[3]": {"conditions": "Test System: AMES SALMONELLA TYPHIMURIUM, Strain/Indicator: TA100, Metabolic Activation: NONE, Method: STANDARD PLATE"}, "[4]": {"conditions": "Test System: AMES SALMONELLA TYPHIMURIUM, Strain/Indicator: TA100, Metabolic Activation: RAT, LIVER, S-9, AROCLOR 1254, Method: STANDARD PLATE"}},
  "note": "Activity calls are given as the source filed them. How the calls were made is not given here.",
  "data": [
    {"compound": "NC(=O)/N=N/C(N)=O", "values": [
      {"measurement": "mutagenic call", "setting": "Test System: AMES SALMONELLA TYPHIMURIUM, Strain/Indicator: TA98, Metabolic Activation: HAMSTER, LIVER, S-9, AROCLOR 1254, Method: STANDARD PLATE", "value": "inactive; negative"},
      {"measurement": "mutagenic call", "setting": "[1]", "value": "inactive; negative"},
      {"measurement": "mutagenic call", "setting": "[2]", "value": "inactive; negative"},
      {"measurement": "mutagenic call", "setting": "Test System: AMES SALMONELLA TYPHIMURIUM, Strain/Indicator: TA100, Metabolic Activation: HAMSTER, LIVER, S-9, AROCLOR 1254, Method: STANDARD PLATE", "value": "active; positive"},
      {"measurement": "mutagenic call", "setting": "[3]", "value": "active; positive"},
      {"measurement": "mutagenic call", "setting": "[4]", "value": "active; positive"},
      {"measurement": "mutagenic call", "setting": "Test System: MOUSE LYMPHOMA, Strain/Indicator: L5178Y (TK+/TK-), Metabolic Activation: NONE, Method: SUSPENSION/PLATE", "value": "inactive; negative. reevaluation of results: inconclusive"},
      {"measurement": "mutagenic call", "setting": "Test System: MOUSE LYMPHOMA, Strain/Indicator: L5178Y (TK+/TK-), Metabolic Activation: RAT, LIVER, S-9, AROCLOR 1254, Method: SUSPENSION/PLATE", "value": "inactive; negative. reevaluation of results: negative"}
    ]},
    {"compound": "O=S1OCC2C(CO1)C1(Cl)C(Cl)=C(Cl)C2(Cl)C1(Cl)Cl", "note": "(stereo not given)", "values": [
      {"measurement": "mutagenic call", "setting": "End Point: IN VITRO CHROMOSOMAL ABERRATIONS, Test System: HUMAN PERIPHERAL BLOOD LYMPHOCYTES, Metabolic Activation: NONE", "value": "active; positive (structural changes)"},
      {"measurement": "mutagenic call", "setting": "End Point: In vitro chromosomal aberrations, Test System: Human (one male) lymphocytes, Metabolic Activation: None", "value": "inactive; negative. (200 ug/ml was toxic to the cells.)"},
      {"measurement": "mutagenic call", "setting": "End Point: In vitro chromosomal aberrations, Test System: Human (one male) lymphocytes, Metabolic Activation: Rat, Liver, S-9", "value": "inactive; negative. (200 ug/ml was toxic to the cells.)"},
      {"measurement": "mutagenic call", "setting": "End Point: In vitro chromosomal aberrations, Test System: Human lymphocytes, Metabolic Activation: None", "value": "active; positive (structural changes and ploidy)"},
      {"measurement": "mutagenic call", "setting": "Test System: AMES SALMONELLA TYPHIMURIUM, Strain/Indicator: TA97A, Metabolic Activation: NONE, Method: PREINCUBATION", "value": "active; positive"},
      {"measurement": "mutagenic call", "setting": "Test System: AMES SALMONELLA TYPHIMURIUM, Strain/Indicator: TA97A, Metabolic Activation: NONE, Method: STANDARD PLATE", "value": "inactive; negative"},
      {"measurement": "mutagenic call", "setting": "Test System: AMES SALMONELLA TYPHIMURIUM, Strain/Indicator: TA97A, Metabolic Activation: RAT, CECAL CELL FREE EXTRACT, Method: STANDARD PLATE", "value": "inactive; negative"},
      {"measurement": "mutagenic call", "setting": "Test System: AMES SALMONELLA TYPHIMURIUM, Strain/Indicator: TA97A, Metabolic Activation: RAT, LIVER, S-9, AROCLOR 1254, Method: STANDARD PLATE", "value": "inactive; negative"},
      {"measurement": "mutagenic call", "setting": "Test System: AMES SALMONELLA TYPHIMURIUM, Strain/Indicator: TA97A, Metabolic Activation: RAT, LIVER, S-9, PHENOBARBITAL, Method: PREINCUBATION", "value": "active; positive"},
      {"measurement": "mutagenic call", "setting": "Test System: AMES SALMONELLA TYPHIMURIUM, Strain/Indicator: TA97A, Metabolic Activation: RAT, LIVER, S-9, PHENOBARBITAL, Method: STANDARD PLATE", "value": "inactive; negative"},
      {"measurement": "mutagenic call", "setting": "Test System: AMES SALMONELLA TYPHIMURIUM, Strain/Indicator: TA98, Metabolic Activation: HAMSTER, LIVER, S-9, AROCLOR 1254 (10%), Method: PREINCUBATION", "value": "inactive; negative"},
      {"measurement": "mutagenic call", "setting": "Test System: AMES SALMONELLA TYPHIMURIUM, Strain/Indicator: TA98, Metabolic Activation: NONE, Method: PREINCUBATION", "value": "inactive; negative"},
      {"measurement": "mutagenic call", "setting": "[1]", "value": "inactive; negative"},
      {"measurement": "mutagenic call", "setting": "Test System: AMES SALMONELLA TYPHIMURIUM, Strain/Indicator: TA98, Metabolic Activation: RAT, CECAL CELL FREE EXTRACT, Method: STANDARD PLATE", "value": "inactive; negative"},
      {"measurement": "mutagenic call", "setting": "Test System: AMES SALMONELLA TYPHIMURIUM, Strain/Indicator: TA98, Metabolic Activation: RAT, LIVER, S-9, AROCLOR 1254 (10%), Method: PREINCUBATION", "value": "inactive; negative"},
      {"measurement": "mutagenic call", "setting": "[2]", "value": "inactive; negative"},
      {"measurement": "mutagenic call", "setting": "Test System: AMES SALMONELLA TYPHIMURIUM, Strain/Indicator: TA98, Metabolic Activation: RAT, LIVER, S-9, PHENOBARBITAL, Method: PREINCUBATION", "value": "inactive; negative"},
      {"measurement": "mutagenic call", "setting": "Test System: AMES SALMONELLA TYPHIMURIUM, Strain/Indicator: TA98, Metabolic Activation: RAT, LIVER, S-9, PHENOBARBITAL, Method: STANDARD PLATE", "value": "inactive; negative"},
      {"measurement": "mutagenic call", "setting": "Test System: AMES SALMONELLA TYPHIMURIUM, Strain/Indicator: TA100, Metabolic Activation: HAMSTER, LIVER, S-9, AROCLOR 1254 (10%), Method: PREINCUBATION", "value": "inactive; negative"},
      {"measurement": "mutagenic call", "setting": "Test System: AMES SALMONELLA TYPHIMURIUM, Strain/Indicator: TA100, Metabolic Activation: NONE, Method: PREINCUBATION", "value": "inactive; negative"},
      {"measurement": "mutagenic call", "setting": "[3]", "value": "inactive; negative"},
      {"measurement": "mutagenic call", "setting": "Test System: AMES SALMONELLA TYPHIMURIUM, Strain/Indicator: TA100, Metabolic Activation: RAT, CECAL CELL FREE EXTRACT, Method: STANDARD PLATE", "value": "inactive; negative"},
      {"measurement": "mutagenic call", "setting": "Test System: AMES SALMONELLA TYPHIMURIUM, Strain/Indicator: TA100, Metabolic Activation: RAT, LIVER, S-9, AROCLOR 1254 (10%), Method: PREINCUBATION", "value": "inactive; negative"},
      {"measurement": "mutagenic call", "setting": "[4]", "value": "inactive; negative"},
      {"measurement": "mutagenic call", "setting": "Test System: AMES SALMONELLA TYPHIMURIUM, Strain/Indicator: TA100, Metabolic Activation: RAT, LIVER, S-9, PHENOBARBITAL, Method: PREINCUBATION", "value": "inactive; negative"},
      {"measurement": "mutagenic call", "setting": "Test System: AMES SALMONELLA TYPHIMURIUM, Strain/Indicator: TA100, Metabolic Activation: RAT, LIVER, S-9, PHENOBARBITAL, Method: STANDARD PLATE", "value": "inactive; negative"},
      {"measurement": "mutagenic call", "setting": "Test System: AMES SALMONELLA TYPHIMURIUM, Strain/Indicator: TA102, Metabolic Activation: NONE, Method: STANDARD PLATE", "value": "inactive; negative"},
      {"measurement": "mutagenic call", "setting": "Test System: AMES SALMONELLA TYPHIMURIUM, Strain/Indicator: TA102, Metabolic Activation: RAT, LIVER, S-9, PHENOBARBITAL, Method: PREINCUBATION", "value": "inactive; negative"},
      {"measurement": "mutagenic call", "setting": "Test System: AMES SALMONELLA TYPHIMURIUM, Strain/Indicator: TA102, Metabolic Activation: RAT, LIVER, S-9, PHENOBARBITAL, Method: STANDARD PLATE", "value": "inactive; negative"},
      {"measurement": "mutagenic call", "setting": "Test System: AMES SALMONELLA TYPHIMURIUM, Strain/Indicator: TA1535, Metabolic Activation: HAMSTER, LIVER, S-9, AROCLOR 1254 (10%), Method: PREINCUBATION", "value": "inactive; negative"},
      {"measurement": "mutagenic call", "setting": "Test System: AMES SALMONELLA TYPHIMURIUM, Strain/Indicator: TA1535, Metabolic Activation: NONE, Method: PREINCUBATION", "value": "inactive; negative"},
      {"measurement": "mutagenic call", "setting": "Test System: AMES SALMONELLA TYPHIMURIUM, Strain/Indicator: TA1535, Metabolic Activation: RAT, LIVER, S-9, AROCLOR 1254 (10%), Method: PREINCUBATION", "value": "inactive; negative"},
      {"measurement": "mutagenic call", "setting": "Test System: AMES SALMONELLA TYPHIMURIUM, Strain/Indicator: TA1537, Metabolic Activation: HAMSTER, LIVER, S-9, AROCLOR 1254 (10%), Method: PREINCUBATION", "value": "inactive; negative"},
      {"measurement": "mutagenic call", "setting": "Test System: AMES SALMONELLA TYPHIMURIUM, Strain/Indicator: TA1537, Metabolic Activation: NONE, Method: PREINCUBATION", "value": "inactive; negative"},
      {"measurement": "mutagenic call", "setting": "Test System: AMES SALMONELLA TYPHIMURIUM, Strain/Indicator: TA1537, Metabolic Activation: RAT, LIVER, S-9, AROCLOR 1254 (10%), Method: PREINCUBATION", "value": "inactive; negative"},
      {"measurement": "mutagenic call", "setting": "Test System: ESCHERICHIA COLI, Strain/Indicator: AB1157, Metabolic Activation: NONE, Method: PREINCUBATION", "value": "active; positive"},
      {"measurement": "mutagenic call", "setting": "Test System: UDS Rat hepatocytes, Strain/Indicator: Primary hepatocytes. Thy incorp, Metabolic Activation: None, Method: Autoradiography", "value": "inactive; negative. (toxic at 51 ug/ml)"}
    ]}
  ]
}
